Structures can show the parent of a compound that is named as a salt.

The test system of this assay is Acinetobacter baumannii ATCC17978. The assay can be described thus: Antimicrobial susceptibility testing: 90% growth inhibitory concentration (IC90) determination, Iso-Sensitest broth. Type of assay: cell-based. The conditions noted are these: Acinetobacter baumannii, ATCC17978, 16 h, read-out: ATCC17978 IC90, 90% growth inhibitory concentration, Acinetobacter baumannii ATCC17978, Iso-Sensitest broth, OD 600 nm over 16 h. The gist of the method: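 A. baumannii ATCC17978 grown in Iso-Sensitest broth across 10 compound concentrations at 35±2 °C.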

Take `Cc1cc(Nc2nccn3c(-c4ccc(OC(F)F)cc4)cnc23)ccc1C(=O)N1CCC(C(=O)NCC2(F)CNC2)CC1` [Example 310, 1-[4-[[3-[4-(difluoromethoxy)phenyl]imi-dazo[1,2-a]pyrazin-8-yl]amino]-2-methylbenzoyl]-N-[(3-fluoroazetidin-3-yl)methyl]piperidine-4-carboxamide; hydrochloride]: the IC90 was found to be 140 nM.

As to `CN[C@@H](C)C(=O)N1CCN(C(=O)c2ccc(Nc3nccn4c(-c5ccc(OC(F)F)cc5)cnc34)cc2C)CC1` [Example 311, (2S)-1-[4-[4-[[3-[4-(difluoromethoxy)phenyl]imi-dazo[1,2-a]pyrazin-8-yl]amino]-2-methylbenzoyl]piperazin-1-yl]-2-(methylamino)propan-1-one; hydrochloride], the IC90 was found to be 190 nM.

As to `Cc1cc(Nc2nccn3c(-c4ccc(OC(F)F)cc4)cnc23)ccc1C(=O)N1CCN(C(=O)C2CC3(CNC3)C2)CC1` [Example 312, [4-(2-azaspiro[3.3]heptane-6-carbonyl)piperazin-1-yl]-[4-[[3-[4-(difluoromethoxy)phenyl]imi-dazo[1,2-a]pyrazin-8-yl]amino]-2-methylphenyl]methanone; hy-drochloride], the IC90 came out at 220 nM.

For the molecule `Cc1cc(Nc2nccn3c(-c4ccc(OC(F)F)cc4)cnc23)ccc1C(=O)N1CCC(C(=O)N(C)CC(O)CO)CC1` (stereo not shown) [Example 313, 1-[4-[[3-[4-(difluoromethoxy)phenyl]imi-dazo[1,2-a]pyrazin-8-yl]amino]-2-methylbenzoyl]-N-(2,3-dihydroxypropyl)-N-methylpiperidine-4-carboxamide], the IC90 stood at 230 nM.

For the molecule `CCNCC(=O)N1CCN(C(=O)c2ccc(Nc3nccn4c(-c5ccc(OC(F)F)cc5)cnc34)cc2C)CC1` [Example 314, 1-[4-[4-[[3-[4-(difluoromethoxy)phenyl]imi-dazo[1,2-a]pyrazin-8-yl]amino]-2-methylbenzoyl]piperazin-1-yl]-2-(ethylamino)ethanone; hydro-chloride], the IC90 is 230 nM.

`Cc1cc(Nc2nccn3c(-c4ccc(OC(F)F)cc4)cnc23)ccc1C(=O)N1CCN(C(=O)[C@H]2CNCCO2)CC1` [Example 315, [4-[[3-[4-(difluoromethoxy)phenyl]imi-dazo[1,2-a]pyrazin-8-yl]amino]-2-methylphenyl]-[4-[(2R)-morpholine-2-carbonyl]piperazin-1-yl]methanone; hydrochloride]: the IC90 came to 240 nM.

On to `Cc1cc(Nc2nccn3c(-c4ccc(OC(F)F)cc4)cnc23)ccc1C(=O)N1CCN(C(=O)CNC(=N)N)CC1` [Example 316, 1-[2-[4-[4-[[3-[4-(difluoromethoxy)phenyl]imi-dazo[1,2-a]pyrazin-8-yl]amino]-2-methylbenzoyl]piperazin-1-yl]-2-oxoethyl]guanidine; formic acid], for which the IC90 was determined as 240 nM.

In the case of `Cc1cc(Nc2nccn3c(-c4ccc(OC(F)F)cc4)cnc23)ccc1C(=O)N1CCN(C(=O)[C@@H](N)C(C)C)CC1` [Example 317, (2S)-2-amino-1-[4-[4-[[3-[4-(difluoromethoxy)phenyl]imi-dazo[1,2-a]pyrazin-8-yl]amino]-2-methylbenzyol]piperazin-1-yl]-3-methylbutan-1-one; hydrochloride], the IC90 turned out to be 240 nM.

Regarding `Cc1cc(Nc2nccn3c(-c4ccc(OC(F)F)cc4)cnc23)ccc1C(=O)N1CCC(C(=O)N2C3CCC2CNC3)CC1` [Example 318, [4-(3,8-diazabicyclo[3.2.1]octane-8-carbonyl)piperidin-1-yl]-[4-[[3-[4-(difluoromethoxy)phenyl]imi-dazo[1,2-a]pyrazin-8-yl]amino]-2-methylphenyl]methanone; hy-drochloride], the IC90 turned out to be 250 nM.

Regarding `Cc1cc(Nc2nccn3c(-c4ccc(OC(F)F)cc4)cnc23)ccc1C(=O)N1CCN(C(=O)[C@H]2[C@@H]3CNC[C@@H]32)CC1` [Example 319, [4-[[3-[4-(difluoromethoxy)phenyl]imi-dazo[1,2-a]pyrazin-8-yl]amino]-2-methylphenyl]-[4-[rac-(1R,5S)-3-azabicyclo[3.1.0]hexane-6-carbonyl]piperazin-1-yl]methanone; hydrochloride], the IC90 is 260 nM.

The values above are taken from US20230011869A1 (Hoffmann-La Roche Inc., priority 2018, published 2023).
